ChEMBL document CHEMBL5380794, “Discovery of a Potent and Selective STAT5 PROTAC Degrader with Strong Antitumor Activity In Vivo in Acute Myeloid Leukemia” (J Med Chem, 2023)
pKi: −log10 of the molar value.

Biological target: T1, Signal transducer and activator of transcription 5A (Homo sapiens, UniProt P42229)
T1 sequence (P42229 whole entry): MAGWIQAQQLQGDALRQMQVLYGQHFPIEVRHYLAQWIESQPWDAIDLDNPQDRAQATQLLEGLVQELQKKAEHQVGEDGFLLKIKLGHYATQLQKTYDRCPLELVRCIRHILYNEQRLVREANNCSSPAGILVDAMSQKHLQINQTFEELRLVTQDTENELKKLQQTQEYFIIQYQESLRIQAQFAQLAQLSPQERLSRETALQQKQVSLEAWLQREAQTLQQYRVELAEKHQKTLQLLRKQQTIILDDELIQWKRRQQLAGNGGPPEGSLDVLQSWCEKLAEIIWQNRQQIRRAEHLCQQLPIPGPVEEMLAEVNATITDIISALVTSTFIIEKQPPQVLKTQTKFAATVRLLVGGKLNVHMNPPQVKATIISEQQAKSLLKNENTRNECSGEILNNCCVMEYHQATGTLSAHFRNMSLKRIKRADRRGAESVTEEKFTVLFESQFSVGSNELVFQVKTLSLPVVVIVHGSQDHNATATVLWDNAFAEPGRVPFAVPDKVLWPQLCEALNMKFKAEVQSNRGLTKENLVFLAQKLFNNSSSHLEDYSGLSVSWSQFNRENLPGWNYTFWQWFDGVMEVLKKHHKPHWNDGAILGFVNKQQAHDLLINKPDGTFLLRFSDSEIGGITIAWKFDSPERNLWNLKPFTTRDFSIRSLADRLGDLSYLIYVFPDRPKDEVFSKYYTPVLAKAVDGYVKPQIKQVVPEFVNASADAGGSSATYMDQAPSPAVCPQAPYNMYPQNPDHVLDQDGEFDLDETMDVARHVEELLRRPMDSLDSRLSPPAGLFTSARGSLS
Experiment: Induction of STAT5 degradation in human SKNO-1 cells measured for 18 hrs by Western blot analysis
Format: cell-based

Row | DC50 [nM] | SMILES
1 | 210 | CC(C)(C)[C@H](NC(=O)c1cc2cc(C(F)(F)P(=O)(O)O)ccc2s1)C(=O)N1CCC[C@H]1C(=O)N(CCC(=O)NCCCC#Cc1cccc2c1CN(C1CCC(=O)NC1=O)C2=O)c1ccc2ccccc2c1 (stereo partly drawn)
2 | 330 | CN(CCCC#Cc1cccc2c1CN(C1CCC(=O)NC1=O)C2=O)C(=O)CCN(C(=O)[C@@H]1CCCN1C(=O)[C@@H](NC(=O)c1cc2cc(C(F)(F)P(=O)(O)O)ccc2s1)C(C)(C)C)c1ccc2scnc2c1 (stereo partly drawn)
3 | > 5000 | CC(C)(C)[C@H](NC(=O)c1cc2cc(C(F)(F)P(=O)(O)O)ccc2s1)C(=O)N1CCC[C@H]1C(=O)N(CCC(=O)NCCCC#Cc1cccc2c1CN(C1CCC(=O)NC1=O)C2=O)c1ccc(F)cc1 (stereo partly drawn)
4 | 310 | Cc1ccc(N(CCC(=O)NCCCC#Cc2cccc3c2CN(C2CCC(=O)NC2=O)C3=O)C(=O)[C@@H]2CCCN2C(=O)[C@@H](NC(=O)c2cc3cc(C(F)(F)P(=O)(O)O)ccc3s2)C(C)(C)C)cc1 (stereo partly drawn)
5 | > 5000 | CC(C)(C)[C@H](NC(=O)c1cc2cc(C(F)(F)P(=O)(O)O)ccc2s1)C(=O)N1CCC[C@H]1C(=O)N(CCC(=O)NCCCC#Cc1cccc2c1CN(C1CCC(=O)NC1=O)C2=O)c1ccc(Cl)c(F)c1 (stereo partly drawn)
6 | > 5000 | CC(C)(C)[C@H](NC(=O)c1cc2cc(C(F)(F)P(=O)(O)O)ccc2s1)C(=O)N1CCC[C@H]1C(=O)N(CCC(=O)NCCCC#Cc1cccc2c1CN(C1CCC(=O)NC1=O)C2=O)c1ccccc1 (stereo partly drawn)
7 | 130 | CN(CCCC#Cc1cccc2c1CN(C1CCC(=O)NC1=O)C2=O)C(=O)CCN(C(=O)[C@@H]1CCCN1C(=O)[C@@H](NC(=O)c1cc2cc(C(F)(F)P(=O)(O)O)ccc2s1)C(C)(C)C)c1ccc2ccccc2c1 (stereo partly drawn)
8 | 210 | CC(C)(C)[C@H](NC(=O)c1cc2cc(C(F)(F)P(=O)(O)O)ccc2s1)C(=O)N1CCC[C@H]1C(=O)N(CCC(=O)NCCCC#Cc1cccc2c1CN(C1CCC(=O)NC1=O)C2=O)c1ccc(-c2cccs2)cc1 (stereo partly drawn)
9 | > 5000 | CC(C)(C)[C@H](NC(=O)c1cc2cc(C(F)(F)P(=O)(O)O)ccc2s1)C(=O)N1CCC[C@H]1C(=O)N(CCC(=O)NCCCC#Cc1cccc2c1CN(C1CCC(=O)NC1=O)C2=O)c1cccc(C#N)c1 (stereo partly drawn)
10 | 130 | CN(CCCC#Cc1cccc2c1CN(C1CCC(=O)NC1=O)C2=O)C(=O)CCN(C(=O)[C@@H]1CCCN1C(=O)[C@@H](NC(=O)c1cc2cc(C(F)(F)P(=O)(O)O)ccc2s1)C(C)(C)C)c1ccc2sccc2c1 (stereo partly drawn)
11 | 200 | CN(CCCC#Cc1cccc2c1CN(C1CCC(=O)NC1=O)C2=O)C(=O)CCN(C(=O)[C@@H]1CCCN1C(=O)[C@@H](NC(=O)c1cc2cc(C(F)(F)P(=O)(O)O)ccc2s1)C(C)(C)C)c1ccc2occc2c1 (stereo partly drawn)
12 | 180 | CC(C)(C)[C@H](NC(=O)c1cc2cc(C(F)(F)P(=O)(O)O)ccc2s1)C(=O)N1CCC[C@H]1C(=O)N(CCC(=O)NCCCC#Cc1cccc2c1CN(C1CCC(=O)NC1=O)C2=O)c1ccc2sccc2c1 (stereo partly drawn)
13 | > 5000 | CC(C)(C)[C@H](NC(=O)c1cc2cc(C(F)(F)P(=O)(O)O)ccc2s1)C(=O)N1CCC[C@H]1C(=O)N(CCC(=O)NCCCC#Cc1cccc2c1CN(C1CCC(=O)NC1=O)C2=O)c1ccc(C#N)cc1 (stereo partly drawn)
14 | 530 | CC(C)(C)[C@H](NC(=O)c1cc2cc(C(F)(F)P(=O)(O)O)ccc2s1)C(=O)N1CCC[C@H]1C(=O)N(CCC(=O)NCCCC#Cc1cccc2c1CN(C1CCC(=O)NC1=O)C2=O)c1ccc(I)cc1 (stereo partly drawn)
15 | 330 | CC(C)(C)[C@H](NC(=O)c1cc2cc(C(F)(F)P(=O)(O)O)ccc2s1)C(=O)N1CCC[C@H]1C(=O)N(CCC(=O)NCCCC#Cc1cccc2c1CN(C1CCC(=O)NC1=O)C2=O)c1ccc2occc2c1 (stereo partly drawn)
16 | 2100 | CC(C)(C)[C@H](NC(=O)c1cc2cc(C(F)(F)P(=O)(O)O)ccc2s1)C(=O)N1CCC[C@H]1C(=O)N(CCC(=O)NCCCC#Cc1cccc2c1CN(C1CCC(=O)NC1=O)C2=O)c1ccc(Cl)cc1 (stereo partly drawn)

Continued, compound first:

Row | SMILES | DC50 [nM]
17 | CC(C)(C)[C@H](NC(=O)c1cc2cc(C(F)(F)P(=O)(O)O)ccc2s1)C(=O)N1CCC[C@H]1C(=O)N(CCC(=O)NCCCC#Cc1cccc2c1CN(C1CCC(=O)NC1=O)C2=O)c1cccc2sccc12 (stereo partly drawn) | > 5000
18 | CC(C)(C)[C@H](NC(=O)c1cc2cc(C(F)(F)P(=O)(O)O)ccc2s1)C(=O)N1CCC[C@H]1C(=O)N(CCCCCCCC#Cc1cccc2c1CN(C1CCC(=O)NC1=O)C2=O)c1ccc(-c2nccs2)cc1 (stereo partly drawn) | > 5000
19 | CC(C)(C)[C@H](NC(=O)c1cc2cc(C(F)(F)P(=O)(O)O)ccc2s1)C(=O)N1CCC[C@H]1C(=O)N(CCC(=O)NCCCC#Cc1cccc2c1CN(C1CCC(=O)NC1=O)C2=O)c1ccc(S(C)(=O)=O)cc1 (stereo partly drawn) | > 5000
20 | CC(C)(C)[C@H](NC(=O)c1cc2cc(C(F)(F)P(=O)(O)O)ccc2s1)C(=O)N1CCC[C@H]1C(=O)N(CCC(=O)NCCCC#Cc1cccc2c1CN(C1CCC(=O)NC1=O)C2=O)c1ccc(C(F)(F)F)cc1 (stereo partly drawn) | 2000
21 | CC(C)(C)[C@H](NC(=O)c1cc2cc(C(F)(F)P(=O)(O)O)ccc2s1)C(=O)N1CCC[C@H]1C(=O)N(CCC(=O)NCCCC#Cc1cccc2c1CN(C1CCC(=O)NC1=O)C2=O)c1ccc(-c2nccs2)cc1 (stereo partly drawn) | 130
22 | CC(C)(C)c1ccc(N(CCC(=O)NCCCC#Cc2cccc3c2CN(C2CCC(=O)NC2=O)C3=O)C(=O)[C@@H]2CCCN2C(=O)[C@@H](NC(=O)c2cc3cc(C(F)(F)P(=O)(O)O)ccc3s2)C(C)(C)C)cc1 (stereo partly drawn) | > 5000
23 | CC(C)(C)[C@H](NC(=O)c1cc2cc(C(F)(F)P(=O)(O)O)ccc2s1)C(=O)N1CCC[C@H]1C(=O)N(CCC(=O)NCCCC#Cc1cccc2c1CN(C1CCC(=O)NC1=O)C2=O)c1ccc2ncsc2c1 (stereo partly drawn) | > 5000
24 | CC(C)(C)[C@H](NC(=O)c1cc2cc(C(F)(F)P(=O)(O)O)ccc2s1)C(=O)N1CCC[C@H]1C(=O)N(CCC(=O)NCCCC#Cc1cccc2c1CN(C1CCC(=O)NC1=O)C2=O)c1cccc(C(F)(F)F)c1 (stereo partly drawn) | > 5000

Biological target: T2, Signal transducer and activator of transcription 5B (Homo sapiens, UniProt P51692)
T2 sequence (P51692 whole entry): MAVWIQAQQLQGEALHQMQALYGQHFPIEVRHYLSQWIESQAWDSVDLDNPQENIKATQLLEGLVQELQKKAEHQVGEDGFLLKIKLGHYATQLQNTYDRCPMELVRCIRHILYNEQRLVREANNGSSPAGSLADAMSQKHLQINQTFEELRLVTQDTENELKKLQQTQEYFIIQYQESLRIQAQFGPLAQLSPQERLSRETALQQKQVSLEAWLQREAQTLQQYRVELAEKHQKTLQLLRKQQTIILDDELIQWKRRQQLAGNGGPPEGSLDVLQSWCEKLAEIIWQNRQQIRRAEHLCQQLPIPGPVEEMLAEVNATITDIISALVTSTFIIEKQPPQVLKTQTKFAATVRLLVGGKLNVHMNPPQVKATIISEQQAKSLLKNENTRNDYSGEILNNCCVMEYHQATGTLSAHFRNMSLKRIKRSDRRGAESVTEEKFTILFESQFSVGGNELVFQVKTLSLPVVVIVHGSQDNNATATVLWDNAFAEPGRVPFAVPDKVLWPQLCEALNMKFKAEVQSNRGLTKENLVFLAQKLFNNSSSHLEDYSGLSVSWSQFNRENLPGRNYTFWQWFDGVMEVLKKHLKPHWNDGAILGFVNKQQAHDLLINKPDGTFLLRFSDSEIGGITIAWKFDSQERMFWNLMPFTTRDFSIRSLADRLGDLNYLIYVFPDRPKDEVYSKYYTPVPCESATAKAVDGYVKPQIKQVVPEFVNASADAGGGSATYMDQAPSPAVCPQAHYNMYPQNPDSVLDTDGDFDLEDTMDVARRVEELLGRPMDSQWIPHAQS
Experiment: Binding affinity to STAT5B (unknown origin) assessed as inhibition constant by FP assay

Row | pKi | SMILES
25 | 5.89 | CN(C)C(=O)CCN(C(=O)[C@@H]1CCCN1C(=O)[C@@H](NC(=O)c1cc2cc(C(F)(F)P(=O)(O)O)ccc2s1)C(C)(C)C)c1ccc2scnc2c1
26 | 5.17 | CN(C)C(=O)CCN(C(=O)[C@@H]1CCCN1C(=O)[C@@H](NC(=O)c1cc2cc(C(F)(F)P(=O)(O)O)ccc2s1)C(C)(C)C)c1ccccc1
27 | 5.70 | CN(C)C(=O)CCN(C(=O)[C@@H]1CCCN1C(=O)[C@@H](NC(=O)c1cc2cc(C(F)(F)P(=O)(O)O)ccc2s1)C(C)(C)C)c1ccc2occc2c1
28 | < 5.00 | CC(C)(C)[C@H](NC(=O)c1cc2cc(C(F)(F)P(=O)(O)O)ccc2s1)C(=O)N1CCC[C@H]1C(=O)Nc1ccccc1
29 | < 5.00 | C/C(=C\C(=O)N[C@H](C(=O)N1CCC[C@H]1C(=O)N1CCCc2ccccc21)C(C)(C)C)c1ccc(C(F)(F)P(=O)(O)O)cc1
30 | < 5.00 | CC(C)(C)[C@H](NC(=O)c1cc2cc(C(F)(F)P(=O)(O)O)ccc2s1)C(=O)N1CCC[C@H]1C(=O)N1CCCOCC1
31 | 5.15 | CN(C)C(=O)CCN(C(=O)[C@@H]1CCCN1C(=O)[C@@H](NC(=O)c1cc2cc(C(F)(F)P(=O)(O)O)ccc2s1)C(C)(C)C)c1cccc(Br)c1
32 | < 5.00 | CC(C)(C)[C@H](NC(=O)c1cc2cc(C(F)(F)P(=O)(O)O)ccc2s1)C(=O)N1CCC[C@H]1C(=O)N1CCC2(CCC2)C1
33 | 5.38 | CN(C)C(=O)CCN(C(=O)[C@@H]1CCCN1C(=O)[C@@H](NC(=O)c1cc2cc(C(F)(F)P(=O)(O)O)ccc2s1)C(C)(C)C)c1ccc(Cl)cc1
34 | 6.10 | CC(C)(C)[C@H](NC(=O)c1cc2cc(C(F)(F)P(=O)(O)O)ccc2s1)C(=O)N1CCC[C@H]1C(=O)N(CCC(=O)NCCCC#Cc1cccc2c1CN(C1CCC(=O)NC1=O)C2=O)c1ccc2sccc2c1 (stereo partly drawn)
35 | 5.21 | CC(C)(C)[C@H](NC(=O)c1cc2cc(C(F)(F)P(=O)(O)O)ccc2s1)C(=O)N1CCC[C@H]1C(=O)N1CCCc2ccccc21
36 | 5.21 | CN(C(=O)[C@@H]1CCCN1C(=O)[C@@H](NC(=O)c1cc2cc(C(F)(F)P(=O)(O)O)ccc2s1)C(C)(C)C)c1ccccc1
37 | 5.68 | CN(C)C(=O)CCN(C(=O)[C@@H]1CCCN1C(=O)[C@@H](NC(=O)c1cc2cc(C(F)(F)P(=O)(O)O)ccc2s1)C(C)(C)C)c1ccc(Br)cc1

Biological target: T1, Signal transducer and activator of transcription 5A
Experiment: Binding affinity to N-terminal 6his-tagged human STAT5A (136 to 705 residues) expressed in Escherichia coli BL21-DE3 rosetta cells assessed as inhibition constant by FP assay

Row | pKi | SMILES
38 | 5.92 | CC(C)(C)[C@H](NC(=O)c1cc2cc(C(F)(F)P(=O)(O)O)ccc2s1)C(=O)N1CCC[C@H]1C(=O)N(CCC(=O)NCCCC#Cc1cccc2c1CN(C1CCC(=O)NC1=O)C2=O)c1ccc2sccc2c1 (stereo partly drawn)
